Source: US20230065495A1, “MULTIPARTITE AND CIRCULARLY PERMUTED BETA-BARREL POLYPEPTIDES AND METHODS FOR THEIR USE” (University of Washington, priority 2020, published 2023)
Values joined by “and” are separate entries in the source; they are usually repeats but may differ in a detail not shown here. Equal entries are not always repeated. Marks after values point to notes of the source that are not given here. Each block holds one molecule with its values, some of them ahead of it. Ends that are not written are not given here.

B2: MBP-tagged split mFAP fragment m48 (β-strands 4-8 of mFAP2a) (designed binder, not shown: large carriers)
chain: DGRPIVGYGKATVKTPDTLDIDITYPSLGNIKAQGQITMDSPTQFKWDATTKGENDFHGRLTGTLQRQE
B3: MBP-tagged split mFAP fragment m14 (β-strands 1-4 of mFAP2a) (designed binder, not shown: large carriers)
chain: SRAAQLLPGTWQATFTNEDGQTSQGQWHFQPRSPYTMDIVAQGTISDGRPIVGYGKATVKTP
B4: MBP-tagged split mFAP fragment m38 (β-strands 3-8 of mFAP2a) (designed binder, not shown: large carriers)
chain: YTMDIVAQGTISDGRPIVGYGKATVKTPDTLDIDITYPSLGNIKAQGQITMDSPTQFKWDATTKGENDFHGRLTGTLQRQE
B5: MBP-tagged split mFAP fragment m12 (β-strands 1-2 of mFAP2a) (designed binder, not shown: large carriers)
chain: SRAAQLLPGTWQATFTNEDGQTSQGQWHFQPRSP
modifications: also: MBP-tagged (side and linker not given here)
B6: MBP-tagged split mFAP fragment m58 (β-strands 5-8 of mFAP2a) (designed binder, not shown: large carriers)
chain: DTLDIDITYPSLGNIKAQGQITMDSPTQFKWDATTKGENDFHGRLTGTLQRQE
modifications: also: MBP-tagged (side and linker not given here)
B7: MBP-tagged split mFAP fragment m13 (β-strands 1-3 of mFAP2a) (designed binder, not shown: large carriers)
chain: SRAAQLLPGTWQATFTNEDGQTSQGQWHFQPRSPYTMDIVAQGTIS
modifications: also: MBP-tagged (side and linker not given here)

Tests used:
[1] = cited from earlier work; for Extinction Coefficient / Reported Quantum Yield / λabs, peak absorbance wavelength / λem, peak emission wavelength / λex, peak excitation wavelength: previously reported value
[2] = molecular target: T1, MBP-tagged split mFAP fragment m17 (β-strands 1-7 of mFAP2a); assay: fluorescence complementation titration: MBP-tagged m8 titrated into fixed MBP-tagged m17 in 25.0 µM DFHBI-1T; signal did not plateau, Kd is at least the highest titrant concentration
T1 chain: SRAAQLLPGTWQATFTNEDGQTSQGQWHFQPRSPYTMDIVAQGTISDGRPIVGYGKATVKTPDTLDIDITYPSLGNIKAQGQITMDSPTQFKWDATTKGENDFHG
Experimental: (§1) Split mFAP fragment affinities (FIG. 1d,e,f,g) were estimated by preparing MBP-tagged split mFAP fragments by large-scale protein purification in high salt Tev cleavage buffer⁹, with 25.0 μM DFHBI-1T final concentration at 28.0 μL final volumes per well in flat bottom, black polystyrene, non-binding surface 96-well half-area microplates (Corning 3686). 3.00 μL of either 132 μM m12, 122 μM m14, 101 μM m16, or 84.9 μM m17 in high salt Tev cleavage buffer was mixed with 3.00 μL of 150 μM DFHBI-1T in high salt Tev cleavage buffer. For each split mFAP fragment, 12.0 μL of the complementary split mFAP fragment in high salt Tev cleavage buffer (the titrant) was mixed in from eleven serial dilutions (\sqrt{10} dilution factor) starting from 422 μM m38, 33.0 μM m58, 348 μM m78, or 531 μM m8 stock solutions, respectively, including a twelfth condition without titrant. Fluorescence endpoints were measured on a Synergy Neo2 hybrid multi-mode reader (BioTek) using excitation wavelength λₑₓ=468 nm and emission wavelength λₑₘ=530 nm. For each titration, the fluorescence intensity of the condition without titrant was subtracted from the fluorescence intensities of samples containing titrant, then the background subtracted data was normalized from 0 to 1. […]

[3] = cpmFAP fluorescence intensity assay; type: biochemical; conditions: equimolar concentration, excess DFHBI-1T
Experimental: To measure the fluorescence intensities of cpmFAPs (FIG. 4b,d), fluorescence endpoints were measured on a Synergy Neo2™ hybrid multi-mode reader (BioTek) in flat bottom, black polystyrene, non-binding surface 96-well microplates (Corning 3650) or half-area microplates (Corning 3686). […]

[4] = molecular target: B7; assay: β-barrel self-complementation assay (fluorescence of DFHBI-1T)
Experimental: (§2) To measure fluorescence intensities in complementation assays (FIG. 1b), fluorescence was measured on a Synergy Neo2 hybrid multi-mode reader (BioTek) in flat bottom, black polystyrene, non-binding surface 96-well half-area microplates (Corning 3686). Each split mFAP fragment covalently fused to maltose binding protein (MBP) was purified by large-scale protein purification in high salt Tev cleavage buffer⁹. In technical triplicate, 12.0 μL of each MBP-tagged split mFAP fragment was mixed to an equimolar concentration supplemented with 1.00 μL of 1.25 mM DFHBI-1T (Lucerna) at 25.0 μL final volumes per well. Fluorescence endpoints were measured using excitation wavelength λₑₓ=478 nm and emission wavelength λₑₘ=520 nm. In technical triplicate, background fluorescence endpoints of wells with identical chromophore concentrations lacking protein (substituted for equivalent volumes of high salt Tev cleavage buffer) were measured, and the mean fluorescence endpoints were subtracted from the mean fluorescence endpoints of samples containing protein (FIG. 1b).

[5] = molecular target: B6; assay: split mFAP self-complementation, MBP-tagged fragments mixed equimolar with excess DFHBI-1T, fluorescence endpoint (n=3)
Experimental: as §2

[6] = molecular target: B5; assay: β-barrel self-complementation assay, equimolar MBP-tagged fragments in excess DFHBI-1T
Experimental: as §2

[7] = molecular target: B5; assay: β-barrel self-complementation assay, equimolar MBP-tagged fragments in excess DFHBI-1T; reference is m1 with m28
Experimental: as §2

[8] = molecular target: B5; assay: fluorescence complementation titration: MBP-tagged m38 titrated into fixed MBP-tagged m12 in 25.0 µM DFHBI-1T; signal did not plateau, Kd is at least the highest titrant concentration
Experimental: as §1

[9] = molecular target: T2, MBP-tagged split mFAP fragment m15 (β-strands 1-5 of mFAP2a); assay: β-barrel self-complementation assay (fluorescence of DFHBI-1T)
T2 chain: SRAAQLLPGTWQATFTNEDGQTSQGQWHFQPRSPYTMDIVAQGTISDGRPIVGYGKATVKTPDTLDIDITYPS
Experimental: as §2

[10] = molecular target: T3, MBP-tagged split mFAP fragment m16 (β-strands 1-6 of mFAP2a); assay: fluorescence complementation titration: MBP-tagged m78 titrated into fixed MBP-tagged m16 in 25.0 µM DFHBI-1T; signal did not plateau, Kd is at least the highest titrant concentration
T3 chain: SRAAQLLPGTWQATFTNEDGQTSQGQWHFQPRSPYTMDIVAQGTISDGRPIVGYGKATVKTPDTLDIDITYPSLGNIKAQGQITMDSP
Experimental: as §1

[11] = molecular target: B4; assay: split mFAP self-complementation, MBP-tagged fragments mixed equimolar with excess DFHBI-1T, fluorescence endpoint (n=3)
Experimental: as §2

[12] = molecular target: B3; assay: fluorescence complementation titration: MBP-tagged m58 titrated into fixed MBP-tagged m14 in 25.0 µM DFHBI-1T; signal did not plateau, Kd is at least the highest titrant concentration
Experimental: as §1

[13] = molecular target: B2; assay: split mFAP self-complementation, MBP-tagged fragments mixed equimolar with excess DFHBI-1T, fluorescence endpoint (n=3)
Experimental: as §2

Molecule: CC1=N/C(=C\c2cc(F)c(O)c(F)c2)C(=O)N1CC(F)(F)F [DFHBI-1T, (Z)-4-(3,5-difluoro-4-hydroxybenzylidene)-2-methyl-1-(2,2,2-trifluoroethyl)-1H-imidazol-5(4H)-one]
Extinction Coefficient [1]: 35,400^¶ M^−1, cm^−1 | Reported Quantum Yield [1]: 0.00098^¶ | λabs, peak absorbance wavelength [1]: 422^¶ nm | λem, peak emission wavelength [1]: 495^¶ nm | λex, peak excitation wavelength [1]: 426^¶ nm

Molecule: CC1=NC(=Cc2cc(F)c(O)c(F)c2)C(=O)N1C [DFHBI, 3,5-difluoro-4-hydroxybenzylidene imidazolinone]
Absolute Quantum Yield ([1]; marked previously reported value): 0.001^# | Extinction Coefficient [1]: 30,100^¶ M^−1, cm^−1 and 31,935^# M^−1, cm^−1 | Reported Quantum Yield [1]: 0.0007^¶ | λabs, peak absorbance wavelength [1]: 418^¶ nm | λem, peak emission wavelength [1]: 489^¶ nm | λex, peak excitation wavelength [1]: 423^¶ nm

Molecule: Cc1cc2cc3cc(C)c(N)cc3nc2cc1N.Cl [Acridine Yellow G]
quantum yield value of reference dye ([1]; in methanol): 0.57

Kd [2]: ≥ 354 µM
Molecule: RLTGTLQRQE (designed binder, not shown: large carriers, also: MBP tag fused, side and linker not given here) [MBP-tagged split mFAP fragment m8 (β-strand 8 of mFAP2a)]

B1: cp35-34_mFAP2a_12: circularly permuted mFAP, SEQ ID NO: 341; brightest cpmFAP tested (protein)
chain: QEMDIVAQGTISDGRPIVGYGKATVKTPDTLDIDITYPSLGNIKAQGQITMDSPTQFKWDATTKGENDFHGRLTGTLQRTEEAKEATEEARRRGITTQAAQLLPGTWQATFTNEDGQTSQGQWHFQPRDG
fluorescence intensity relative to mFAP2a [3]: ~93%

Molecule: B2
binding result [4]: binds

Molecule: B3
binding result [5]: binds

Molecule: B4
mean fluorescence intensity over mean background fluorescence intensity (fold) [6]: 7.34 fold | background-subtracted mean fluorescence intensity relative to the m1 and m28 combination (fold) [7]: 184 fold | Kd [8]: ≥ 281 µM

binding result [9]: binds
Molecule: LGNIKAQGQITMDSPTQFKWDATTKGENDFHGRLTGTLQRQE (designed binder, not shown: large carriers, also: MBP tag fused, side and linker not given here) [MBP-tagged split mFAP fragment m68 (β-strands 6-8 of mFAP2a)]

Kd [10]: ≥ 232 µM
Molecule: TQFKWDATTKGENDFHGRLTGTLQRQE (designed binder, not shown: large carriers, also: MBP tag fused, side and linker not given here) [MBP-tagged split mFAP fragment m78 (β-strands 7-8 of mFAP2a)]

Molecule: B5
binding result [11]: binds

Molecule: B6
Kd [12]: ≥ 22 µM

Molecule: B7
binding result [13]: binds
